Measured values: PubChem BioAssay AID2060910 (Molecular Pharmacology Branch, DTP, NCI, 2025)

System: 242566-281-R-J2-PDC complex spheroid viability
Assay: Anticancer human tumor 242566-281-R-J2-PDC patient-derived pancreatic carcinoma cell line growth inhibition [RAS]
Details: for IC50: curve of first compound; for viability, T/C: stronger effect = lower value; active means viability on the fitted dose curve at most 10% of control; inactive means the rest
Method in brief: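 Tumour cells grown as complex spheroids with HUVEC endothelial cells and mesenchymal stem cells, treated with RAS pathway inhibitor combinations. Each agent spans half-log steps from near clinical Cmax, or 10 microM where Cmax is unknown.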

[1] = second compound 0.000949 µM, first compound 0.00316 µM
[2] = second compound 0.000949 µM, first compound 0.01 µM
[3] = second compound 0.000949 µM, first compound 0.0316 µM
[4] = second compound 0.000949 µM, first compound 0.1 µM
[5] = second compound 0.003 µM, first compound 0.00316 µM
[6] = second compound 0.003 µM, first compound 0.01 µM
[7] = second compound 0.003 µM, first compound 0.0316 µM
[8] = second compound 0.003 µM, first compound 0.1 µM
[9] = second compound 0.00949 µM, first compound 0.00316 µM
[10] = second compound 0.00949 µM, first compound 0.01 µM
[11] = second compound 0.00949 µM, first compound 0.0316 µM
[12] = second compound 0.00949 µM, first compound 0.1 µM
[13] = second compound 0.03 µM, first compound 0.00316 µM
[14] = second compound 0.03 µM, first compound 0.01 µM
[15] = second compound 0.03 µM, first compound 0.0316 µM
[16] = second compound 0.03 µM, first compound 0.1 µM
[17] = second compound 0.0949 µM, first compound 0.00316 µM
[18] = second compound 0.0949 µM, first compound 0.01 µM
[19] = second compound 0.0949 µM, first compound 0.0316 µM
[20] = second compound 0.0949 µM, first compound 0.1 µM
[21] = second compound 0.3 µM, first compound 0.00316 µM
[22] = second compound 0.3 µM, first compound 0.01 µM
[23] = second compound 0.3 µM, first compound 0.0316 µM
[24] = second compound 0.3 µM, first compound 0.1 µM
[25] = second compound 0.000949 µM, first compound 0.316 µM
[26] = second compound 0.000949 µM, first compound 1 µM
[27] = second compound 0.000949 µM, first compound 3.16 µM
[28] = second compound 0.000949 µM, first compound 10 µM
[29] = second compound 0.003 µM, first compound 0.316 µM
[30] = second compound 0.003 µM, first compound 1 µM
[31] = second compound 0.003 µM, first compound 3.16 µM
[32] = second compound 0.003 µM, first compound 10 µM
[33] = second compound 0.00949 µM, first compound 0.316 µM
[34] = second compound 0.00949 µM, first compound 1 µM
[35] = second compound 0.00949 µM, first compound 3.16 µM
[36] = second compound 0.00949 µM, first compound 10 µM
[37] = second compound 0.03 µM, first compound 0.316 µM
[38] = second compound 0.03 µM, first compound 1 µM
[39] = second compound 0.03 µM, first compound 3.16 µM
[40] = second compound 0.03 µM, first compound 10 µM
[41] = second compound 0.0949 µM, first compound 0.316 µM
[42] = second compound 0.0949 µM, first compound 1 µM
[43] = second compound 0.0949 µM, first compound 3.16 µM
[44] = second compound 0.0949 µM, first compound 10 µM
[45] = second compound 0.3 µM, first compound 0.316 µM
[46] = second compound 0.3 µM, first compound 1 µM
[47] = second compound 0.3 µM, first compound 3.16 µM
[48] = second compound 0.3 µM, first compound 10 µM
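Further: spheroids exposed to compound for 7 days before readout.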
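Wherever viability, T/C is given: 100% = DMSO vehicle control wells.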

CC(C)n1nc(-c2ccc3oc(N)nc3c2)c2c(N)ncnc21 + CCn1c(-c2cc(N3CCN(C)CC3)cnc2C(C)OC)c2c3cc(ccc31)-c1csc(n1)CC(NC(=O)C1CC1C)C(=O)N1CCCC(N1)C(=O)OCC(C)(C)C2
active: viability, T/C [16] 10.4% | viability, T/C [19] 7.41% | viability, T/C [20] 6.96% | viability, T/C [23] 7.41% | viability, T/C [24] 5.69%
inactive: viability, T/C (second compound 0.000949 µM, first compound 0.000316 µM) 81.6% | viability, T/C (second compound 0.000949 µM, first compound 0.001 µM) 91.5% | viability, T/C [1] 61.7% | viability, T/C [2] 71.3% | viability, T/C [3] 48% | viability, T/C [4] 27.4% | viability, T/C (second compound 0.003 µM, first compound 0.000316 µM) 75.8% | viability, T/C (second compound 0.003 µM, first compound 0.001 µM) 62.1% | viability, T/C [5] 54.2% | viability, T/C [6] 48.7% | viability, T/C [7] 40.9% | viability, T/C [8] 20.6% | viability, T/C (second compound 0.00949 µM, first compound 0.000316 µM) 48.5% | viability, T/C (second compound 0.00949 µM, first compound 0.001 µM) 38.4% | viability, T/C [9] 36.1% | viability, T/C [10] 30.9% | viability, T/C [11] 28.2% | viability, T/C [12] 15.8% | viability, T/C (second compound 0.03 µM, first compound 0.000316 µM) 28.5% | viability, T/C (second compound 0.03 µM, first compound 0.001 µM) 29.8% | viability, T/C [13] 26.3% | viability, T/C [14] 19.1% | viability, T/C [15] 11.9% | viability, T/C (second compound 0.0949 µM, first compound 0.000316 µM) 21.5% | viability, T/C (second compound 0.0949 µM, first compound 0.001 µM) 18.4% | viability, T/C [17] 18.9% | viability, T/C [18] 13.8% | viability, T/C (second compound 0.3 µM, first compound 0.000316 µM) 18.5% | viability, T/C (second compound 0.3 µM, first compound 0.001 µM) 16.6% | viability, T/C [21] 15.2% | viability, T/C [22] 11.5%
7.15 nM: IC50 (second compound 0.003 µM)
29.9 nM: IC50 (second compound 0.000949 µM)
< 0.316 nM: IC50 (second compound 0.00949 µM) | IC50 (second compound 0.03 µM) | IC50 (second compound 0.0949 µM) | IC50 (second compound 0.3 µM)

CC1(O)CCCC1n1c(=O)c(C(F)F)cc2cnc(NC3CCN(S(C)(=O)=O)CC3)nc21 (stereo not drawn) + CCn1c(-c2cc(N3CCN(C)CC3)cnc2C(C)OC)c2c3cc(ccc31)-c1csc(n1)CC(NC(=O)C1CC1C)C(=O)N1CCCC(N1)C(=O)OCC(C)(C)C2
< 31.6 nM: IC50 (second compound 0.03 µM) | IC50 (second compound 0.0949 µM) | IC50 (second compound 0.3 µM)
6350 nM: IC50 (second compound 0.000949 µM)
31.6 nM: IC50 (second compound 0.00949 µM)
4930 nM: IC50 (second compound 0.003 µM)
inactive: viability, T/C [3] 85.7% | viability, T/C [4] 84% | viability, T/C [25] 72.8% | viability, T/C [26] 98.9% | viability, T/C [27] 98.1% | viability, T/C [28] 25.2% | viability, T/C [7] 73% | viability, T/C [8] 58.6% | viability, T/C [29] 64.7% | viability, T/C [30] 73.3% | viability, T/C [31] 82.5% | viability, T/C [32] 17.2% | viability, T/C [11] 43.7% | viability, T/C [12] 42.2% | viability, T/C [33] 49.5% | viability, T/C [34] 51.4% | viability, T/C [35] 53.2% | viability, T/C [36] 14.7% | viability, T/C [15] 25.7% | viability, T/C [16] 28.7% | viability, T/C [37] 30.8% | viability, T/C [38] 35.6% | viability, T/C [39] 30.7% | viability, T/C [40] 18.1% | viability, T/C [19] 23.1% | viability, T/C [20] 23.8% | viability, T/C [41] 22% | viability, T/C [42] 28.7% | viability, T/C [43] 22.5% | viability, T/C [44] 15.1% | viability, T/C [23] 18% | viability, T/C [24] 18.6% | viability, T/C [45] 20.5% | viability, T/C [46] 23.6% | viability, T/C [47] 26.8% | viability, T/C [48] 14.1%

CCN1CCN(Cc2ccc(Nc3ncc(F)c(-c4cc(F)c5nc(C)n(C(C)C)c5c4)n3)nc2)CC1 + CCn1c(-c2cc(N3CCN(C)CC3)cnc2C(C)OC)c2c3cc(ccc31)-c1csc(n1)CC(NC(=O)C1CC1C)C(=O)N1CCCC(N1)C(=O)OCC(C)(C)C2
> 1000 nM: IC50 (second compound 0.000949 µM) | IC50 (second compound 0.003 µM)
inactive: viability, T/C [1] 88.6% | viability, T/C [2] 88.5% | viability, T/C [3] 69.9% | viability, T/C [4] 76% | viability, T/C [25] 90.5% | viability, T/C [26] 83.7% | viability, T/C [5] 81.9% | viability, T/C [6] 67.8% | viability, T/C [7] 58.8% | viability, T/C [8] 63.8% | viability, T/C [29] 71.8% | viability, T/C [30] 56.1% | viability, T/C [9] 53.8% | viability, T/C [10] 38.4% | viability, T/C [11] 43.2% | viability, T/C [12] 39.6% | viability, T/C [33] 42.9% | viability, T/C [34] 48.1% | viability, T/C [13] 27.8% | viability, T/C [14] 31.3% | viability, T/C [15] 29.7% | viability, T/C [16] 30.9% | viability, T/C [37] 29.2% | viability, T/C [38] 40.9% | viability, T/C [17] 22% | viability, T/C [18] 22.1% | viability, T/C [19] 20.8% | viability, T/C [20] 22% | viability, T/C [41] 22% | viability, T/C [42] 31.6% | viability, T/C [21] 19.2% | viability, T/C [22] 18.9% | viability, T/C [23] 19.1% | viability, T/C [24] 20.3% | viability, T/C [45] 22.4% | viability, T/C [46] 32.7%
< 3.16 nM: IC50 (second compound 0.00949 µM) | IC50 (second compound 0.03 µM) | IC50 (second compound 0.0949 µM) | IC50 (second compound 0.3 µM)

C[C@@H](NC(=O)c1ncnc(N)c1Cl)c1ncc(C(=O)Nc2cc(C(F)(F)F)c(Cl)cn2)s1 + CCn1c(-c2cc(N3CCN(C)CC3)cnc2C(C)OC)c2c3cc(ccc31)-c1csc(n1)CC(NC(=O)C1CC1C)C(=O)N1CCCC(N1)C(=O)OCC(C)(C)C2
inactive: viability, T/C [3] 98.8% | viability, T/C [4] 114% | viability, T/C [25] 82.7% | viability, T/C [26] 97.9% | viability, T/C [27] 106% | viability, T/C [28] 76.4% | viability, T/C [7] 89.8% | viability, T/C [8] 73.5% | viability, T/C [29] 71.6% | viability, T/C [30] 79.2% | viability, T/C [31] 92.7% | viability, T/C [32] 62.3% | viability, T/C [11] 54% | viability, T/C [12] 49.3% | viability, T/C [33] 54.7% | viability, T/C [34] 63.3% | viability, T/C [35] 58.9% | viability, T/C [36] 52.7% | viability, T/C [15] 35.3% | viability, T/C [16] 35.2% | viability, T/C [37] 39.9% | viability, T/C [38] 35.4% | viability, T/C [39] 29.8% | viability, T/C [40] 40.1% | viability, T/C [19] 22.9% | viability, T/C [20] 24.8% | viability, T/C [41] 25.7% | viability, T/C [42] 27.2% | viability, T/C [43] 23.6% | viability, T/C [44] 26.3% | viability, T/C [23] 21.2% | viability, T/C [24] 23.5% | viability, T/C [45] 22.2% | viability, T/C [46] 19.9% | viability, T/C [47] 21.9% | viability, T/C [48] 22.6%
< 31.6 nM: IC50 (second compound 0.03 µM) | IC50 (second compound 0.0949 µM) | IC50 (second compound 0.3 µM)
> 10000 nM: IC50 (second compound 0.000949 µM) | IC50 (second compound 0.003 µM) | IC50 (second compound 0.00949 µM)
